The values below come from patent US10335518B2, “Catheter locking formulation and method to prepare same” (priority 2013, dated 2019).

The conditions of data set [1]: cited from earlier work.
For data set [2] the following is noted: no concentration stated.

Molecules are shown by their SMILES. Read-outs that look alike come from different tables or passages of the source.

Take `COc1cc(Cc2cnc(N)nc2N)cc(OC)c1OC` [Trimethoprim]: the solubility in data set [1] (95% Ethanol) is listed as 0.81 g/100 mL; in data set [1] (Absolute Ethanol), 0.35 g/100 mL; in data set [1] (Acetone), 0.35 g/100 mL; in data set [1] (Benzene), 0.002 g/100 mL; in data set [1] (Benzyl Alcohol), 7.29 g/100 mL; in data set [1] (Carbon Tetra-Chloride), 0.002 g/100 mL. The solubility in data set [1] (Choroform) is given as 1.82 g/100 mL; in data set [1] (Diethyl Ether), 0.00 g/100 mL; in data set [1] (Dimethyl Acetamide) it was 13.86 g/100 mL; in data set [1] (Methanol), 1.21 g/100 mL; in data set [1] (Petroleum Ether), 0.02 g/100 mL; in data set [1] (Propylene Glycol), 2.57 g/100 mL. The solubility in data set [1] (Water) was 0.04 g/100 mL. Further, in data set [2], the “solubility in ethanol (qualitative)” value is on record as “only slightly soluble”. In addition, the “solubility in propylene glycol (qualitative)” value in data set [2] was “soluble”. Further, in data set [2], the “solubility in water (qualitative)” value is “almost completely insoluble”.
